# Assay results: patent US20160051665A1, “INDUCTION OF IMMUNE RESPONSE” (priority 2010, published 2016)
# “Also recorded” adds a separate entry of the source.
# Experiments:
# woodchuck PBMCs = experiment: PBMC proliferation assay (stimulation index) with PBMCs of treated woodchucks; format: in vivo
# Protocol: T cell responses against WHY were determined using in vitro stimulators at concentrations optimal for cultures of woodchuck PBMCs (29, 30). Stimulators consisted of native 22-nm WHsAg (2 μg/ml), recombinant WHcAg (2 μg/ml), or synthetic peptides (10 μg/ml) corresponding to either native viral sequences or predicted N-de-glycosylated sequences (Table 1, below).
# The in vitro proliferation assay using woodchuck PBMCs labeled dividing cells with [2-^3H]adenine (Amersham Pharmacia Biotech, Inc., Arlington Heights, Ill.). Woodchuck PBMCs were isolated from whole blood and stimulated as described (30, 31). Counts per minute of triplicate PBMC cultures were averaged and expressed as a stimulation index (SI) by dividing the average sample counts per minute in the presence of the stimulator by that observed in the absence of stimulator (six replicates). A SI value of ≧3.1 was considered to represent a positive, specific T-cell response.
# (§1) Woodchucks chronically infected with WHV experienced significant immunological responses to envelope proteins following immunization with WHsAg-containing vaccines, especially in the context of low viral and antigen loads following treatment with an effective antiviral agent, 1-(2-fluoro-5-methyl-beta-L-arabinofuranosyl)-uracil (L-FMAU) (29, 35). […] Animals were scored as positive if cells proliferated above the cut-off value of 2: 3.1. […]
# [1] = system: woodchuck hepatitis virus (WHV); experiment: serum WHV DNA by dot blot hybridization in chronic WHV carrier woodchucks; format: in vivo; settings: for WHV DNA, Av(range): serum
# Protocol: All experimental procedures involving woodchucks were performed under protocols approved by the Cornell University Institutional Animal Care and Use Committee. Woodchucks were born to WHV-negative females in environmentally controlled laboratory animal facilities and inoculated at 3 days of age with 5 million infectious doses of a standardized WHV inoculum (23). Woodchucks were selected as chronic WHV carriers based on persistent detection of WHV surface antigen (WHsAg) and WHV DNA in serum prior to treatments. All animals were free of HCC at the beginning of the study as determined by hepatic ultrasound examination and normal serum activity of γ-glutamyl-transferase (GGT).
# Twenty adult chronically infected woodchucks were stratified by age, sex, body weight, serum viral load, and serum GGT activity into four treatment groups of five animals each. Drug was administered orally at 100 mg/kg (in sterile water), chosen after an initial dose finding trial. […] The subunit vaccine consisted of 22-nm WHsAg particles, purified by zonal ultracentrifugation from serum of WHV7P1-infected WHV carriers (24), inactivated with formalin, and adsorbed onto alum. Prior to alum adsorption, vaccine was tested in naïve, WHV-susceptible animals and no residual virus was detected. Purified WHsAg was not pretreated with enzymes that remove preS sequences.
# Blood samples were obtained for WHV DNA analysis and serological testing while animals were under general anesthesia (ketamine 50 mg/kg and xylazine 5 mg/kg intramuscularly). Samples were taken prior to drug administration on the first day of treatment and at the indicated time points.
# Serum WHV DNA was measured quantitatively by dot blot hybridization (assay sensitivity, ≧1.0×10^7 WHV genome equivalents per ml [WHVge/ml]) (25). Serum WHsAg, antibodies to WHV core antigen (anti-WHc), and WHV surface antigen (anti-WHs) were determined with WHV-specific enzyme immunoassays (26). Serum biochemical measurements included serum GGT, alkaline phosphatase (ALP), and marker of hepatocellular injury alanine aminotransferase (ALT), aspartate aminotransferase (AST), and sorbitol dehydrogenase (SDH) (25).
# as §1, with “35). Since BuCas treatment might be expected to reduce the amount of MHBs in the circulation and/or alter its immunological profile, the response to BuCas administration along with WHsAg vaccine was investigated.” for “35).”
structure (smiles),measurement,setting,value
"CCCC(=O)O[C@H]1CN2CC[C@H](O)[C@@H]2[C@@H](O)[C@H]1O [BuCas, 6-O-butanoyl castanospermine]",PBMC response to paired N-peptides versus D-peptides,"woodchuck PBMCs; glycosylation sequons at amino acids 4 and 146, from week 8 on, FIG. 4",responded more strongly to D-peptides versus N-peptides
same,PBMC proliferation in response to WHV HBs antigens,"woodchuck PBMCs; positive if SI ≧3.1, FIG. 3",resulted in proliferation in response to WHV HBs antigens; also recorded: stimulated cellular immunity to viral antigen
same,"viremia, in words","[1]; chronic WHV carrier woodchucks, all times tested",not altered significantly
same,antiviral response in woodchucks,[1]; drug treated chronic WHV carrier woodchucks,no detectable antiviral response
same,"WHV DNA, Av(range)","[1]; week 0 (baseline), chronic WHV carrier woodchucks",2.7(.4-7.0) genome equivalents (×10^10)
same,"WHV DNA, Av(range)","[1]; week 10 (4 weeks after first vaccination), UD = <E07 GE, detection limit of dot blot hybridization",1.9(.9-4.8) genome equivalents (×10^10)
